According to patent US10822315B2, “5-benzylidene-4-oxazolidinones” (NORTH CAROLINA STATE UNIVERSITY, priority 2016, dated 2020):
≈ marks a conversion by molar mass, not a printed value.

What was measured:
MRSA ATCC BAA-44 [1] = assay: Biofilm dispersion assay (crystal violet, pre-formed biofilm); type: cell-based, Staphylococcus aureus; details: for % dispersion of pre-formed biofilm: 40 μM; for IC50: MRSA ATCC BAA-44; for % dispersion of pre-formed biofilm at 5 µM: MRSA ATCC BAA 44
Description: (§1) General Information. Methicillin-resistant Staphylococcus aureus (MRSA) strains were obtained from the Laboratory of Professor Christian Melander (NCSU) ATCC (33591, BAA 44, BAA 1685, BAA 1770, BAA 43 300) and colonies were grown on solid media as instructed. Mueller-Hinton broth (MHB, 211443-BD), tryptic soy broth (TSB, Remel: R455052) and D-glucose (CAS: 492-62-6) were purchased from Fisher Scientific. Tryptic soy agar (TSA, cat. #22091) and Linezolid (cat. # P70014) were purchased from Sigma-Aldrich. Bacteria for biofilm inhibition and dispersion assays were cultured overnight in TSBG (tryptic soy broth with 0.5% glucose supplement). All assays were run in duplicate and repeated at least two separate times for MIC assays and at least four separate times for biofilm inhibition and dispersion assays. All compounds were dissolved molecular biology grade DMSO as 100 mM stock solutions and further diluted to 10 and 1 mM stock solutions as needed. Optical densities were measured using a Thermo Scientific Genesys 20 spectrophotometer. Data for biofilm inhibition and dispersion assays was collected using a BioTek ELx808 Microplate Reader. All graphs were generated and analyzed using GraphPad Prism 7.
Biofilm Dispersion Assay. Studies were performed using the standard method described in J. J. Richards, T. E. Ballard and C. Melander, Org Biomol Chem, 2008, 6, 1356-1363. Briefly, dispersion assays were performed by taking an overnight culture of bacterial strain and subculturing it at an OD600 of 0.01 into the necessary growth liquid medium. The resulting bacterial suspension was aliquoted (100 μL) into the wells of a 96-well PVC microtiter plate. Plates were then wrapped in GLAD Press n' Seal followed by an incubation under stationary conditions at an ambient temperature. After 24 hours, the media was discarded from the wells and the plates were washed thoroughly with tap water. Predetermined concentrations of the test compound were then made in the same medium used to initially grow the biofilms and then aliquoted (100 μL) into the wells of the 96-well PVC microtiter plate with the established biofilms. Plates were then wrapped in GLAD Press n'Seal and incubated under stationary conditions at 37° C. After 24 hours, the media was discarded from the wells and the plates were washed thoroughly with tap water. Plates were then stained with 100 μL of 0.1% solution of crystal violet (CV) and then incubated at room temperature for 30 minutes. Plates were then washed with tap water again and the remaining stain was solubilized with 200 μL of 95% ethanol. Biofilm dispersion was quantitated by measuring the OD540 for each well by transferring 125 μL of the solubilized CV stain into a polystyrene microtiter dish for analysis. Biofilm inhibition was quantified by measuring the OD540 of each well and calculated as a percentage of the control (no compound), a negative control lane wherein no biofilm was formed served as a background and was subtracted out.
(§2) Percent dispersion was then plotted against concentration in Prism 7. Each of the four experiments were plotted separately and analyzed by a normalized nonlinear regression. The IC50 values reported represent an arithmetic mean of the four IC50 values. Biofilm data represent four separate experiments, with each experiment performed in duplicate (average of 8 data points for each concentration tested, unless otherwise noted)

MRSA ATCC BAA-44 [2] = assay: Biofilm inhibition assay (crystal violet); type: cell-based, Staphylococcus aureus; details: for IC50: MRSA ATCC BAA-44; for inhibition at 5 µM: MRSA ATCC BAA 44; for dose dependence of biofilm inhibition (in words): relative to MIC
Description: as §1
(§3) Biofilm Inhibition Assay. Studies were performed using the standard method described in S. A. Rogers and C. Melander, Angew Chem Int Ed, 2008, 47, 5229-5231. Briefly, biofilm inhibition assays were performed by taking an overnight culture of bacterial strain and subculturing it at an OD600 of 0.01 into the necessary growth liquid medium (LB for A. baumannii, LBNS for P. aeruginosa, Stainer-Scholte medium that was supplemented with 10 μL/mL of 100× nutrient complex for B. bronchiseptica and TSB w/0.3% glucose for S. aureus) for the strain. The compound being tested was then added at a predetermined concentration and then aliquoted (100 μL) into the wells of a 96-well PVC microtiter plate (wells not used for samples are filled with 100 μL of de-ionized water). Plates were then wrapped in GLAD Press n' Seal and incubated under stationary conditions at 37° C. After 24 hours, the media was discarded from the wells and the plates were washed thoroughly with tap water. Plates were then stained with 100 μL of 0.1% solution of crystal violet (CV) and then incubated at an ambient temperature for 30 minutes. Sample plates were then washed with tap water again and the remaining stain was solubilized with 200 μL of 95% ethanol. Biofilm inhibition was quantitated by measuring the OD540 for each well by transferring 125 μL of the solubilized CV stain into a polystyrene microtiter dish for analysis. Biofilm inhibition was quantified by measuring the OD540 of each well and calculated as a percentage of the control (no compound); a negative control lane wherein no biofilm was formed served as a background and was subtracted out.
as §2, with “inhibition” for “dispersion”

MRSA Strain 1770 [3] = assay: Biofilm inhibition assay (crystal violet); type: cell-based, Staphylococcus aureus; details: for inhibition at 5 µM / inhibition at 40 µM: Staphylococcus aureus, read-out: % Biofilm Inhibition (5/40 μM)
Description: as §1, §3
as §2, with “inhibition” for “dispersion”

MRSA Strain 1685 = assay: Broth microdilution MIC determination; type: cell-based; details: Staphylococcus aureus
Description: as §1
(§4) Broth microdilution protocol for minimum inhibition concentration (MIC) determination. Studies were performed using the standard method prescribed by the Clinical and Laboratory Standards Institute (CLSI) M07-A8, Vol. 29 (2), which is hereby incorporated herein by reference. Briefly, fresh Mueller-Hinton broth (MHB) ˜3 ml, was inoculated (5×10^5 CFU mL^−1) with MRSA (ATCC 33591) methicillin-resistant Staphylococcus aureus. The resulting bacterial suspension was aliquoted (1 mL) into culture tubes and test compound (10 mM DMSO stock solution) was added to reach the final concentration of the interest. Bacteria not treated with the antimicrobial compound served as the control. Rows 2-12 of a 96-well microtiter plate were filled with remaining bacterial subcultures. The samples containing test compound were aliquoted (200 μL) into the first row wells of the microtiter plate (2 wells per compound). Row 1 wells were mixed 6-8 times and 100 μL was transferred down to row 2. Row 2 wells were mixed 6-8 times, followed by a 100 μL transfer from row 2 down to row 3. The rest of the rows of the plate were serially diluted in similar fashion. The plate was covered with sealing tape for 96-well plates (ThermoFisher) and incubated under stationary conditions at 37° C. A duplicate of the plate was prepared.

MRSA ATCC 33591 = assay: Broth microdilution MIC determination; type: cell-based; details: Staphylococcus aureus, Table 1, read-out: Antimicrobial Activity MIC
Description: as §1, §4

MRSA Strain 1770 [4] = assay: Broth microdilution MIC determination; type: cell-based; details: Staphylococcus aureus
Description: as §1, §4

planktonic bacteria = assay: Growth curve analysis; type: cell-based

Structure (SMILES) | % dispersion of pre-formed biofilm (MRSA ATCC BAA-44 [1]) | IC50 (MRSA ATCC BAA-44 [1]) | % dispersion of pre-formed biofilm at 5 µM (MRSA ATCC BAA-44 [1]; Staphylococcus aureus) | IC50 (MRSA ATCC BAA-44 [1]; Staphylococcus aureus) | IC50 (MRSA ATCC BAA-44 [2]) | inhibition at 5 µM (MRSA ATCC BAA-44 [2]; Staphylococcus aureus) | IC50 (MRSA ATCC BAA-44 [2]; Staphylococcus aureus) | dose dependence of biofilm inhibition (in words) (MRSA ATCC BAA-44 [2]) | inhibition at 5 µM (MRSA Strain 1770 [3]) | inhibition at 40 µM (MRSA Strain 1770 [3]) | MIC (MRSA Strain 1685) | MIC (MRSA ATCC 33591) | MIC (MRSA Strain 1770 [4]) | growth curve versus untreated control (in words) (planktonic bacteria; 1 μM) | growth curve versus untreated control (in words) (planktonic bacteria; 5 μM) | biofilm inhibition activity (in words) (MRSA Strain 1770 [3])
CCCCC(Cl)(Cl)C1NC(=O)/C(=C/c2ccc(C(F)(F)F)cc2)O1 (stereo not drawn) [Compound 1, (Z)-2-(1,1-dichloropentyl)-5-(4-(trifluoromethyl)benzylidene)oxazolidin-4-one] | 87% | 5.7 µM | 59% | 4.7 µM | 1 µM | 89% | 0.78 µM | dose-dependent biofilm inhibition at concentrations well below their MIC | 49% | 66% | 16 µg/mL (≈ 41.9 µM) | 12 µg/mL (≈ 31.4 µM) | 16 µg/mL (≈ 41.9 µM) | substantial inhibition of growth in the first 8 hours | substantial inhibition of growth in the first 8 hours | 
O=C1NC(C(Cl)(Cl)Cc2ccccc2)O/C1=C\c1ccc(C(F)(F)F)cc1 (stereo not drawn) [Compound 2, (Z)-2-(1,1-dichloro-2-phenylethyl)-5-(4-(trifluoromethyl)benzylidene)oxazolidin-4-one] | 69% |  | 57% | 4.3 µM | 1.4 µM | 82% | 1.2 µM | dose-dependent biofilm inhibition at concentrations well below their MIC | 3% | -16% | 8 µg/mL (≈ 19.2 µM) | 6 µg/mL (≈ 14.4 µM) | 8 µg/mL (≈ 19.2 µM) | modest deviation from the untreated control | moderate growth inhibition in the first 8 hours | virtually no activity
